Data reported in US20090264457A1, “Combination of at least two 5HT6-Ligands” (priority 2007, published 2009).
“Also recorded” adds a separate entry of the source.

Assays:
[1] = tested on: Lister Hooded rats; test: Novel object discrimination trial (two trial paradigm); type: in vivo, rat; conditions: for Dose at which the maximum effect was achieved in dose response trials: i.p., drug 20 minutes before familiarisation trial, COMPOUND 1 at 1.25, 2.5, 5 or 10 mg/kg, SB-271046 at 5 or 10 mg/kg
Description: Adult male Lister Hooded rats (Charles River, UK) weighing 200-350 g at the start of the experiment were housed in groups of four on a 12:12 h light:dark cycle (lights on at 07:00 h). Food and water were available ad libitum throughout the study, and the room temperature (21±2° C.) and relative humidity (45-65%) were kept constant. […] Each drug combination was administered to all rats in the group over a period of 4 weeks in a random order using a seven day behavioural test interval.
The two trial novel object discrimination paradigm utilised, was as described by Ennaceur and Delacour, (1988) with minor modification (King et al., 2004b; Woolley et al., 2003). The twelve open field test arenas used for object discrimination were clear perspex boxes (39×23.5 cm with 24.5 cm high walls) to which each rat was habituated for 60 minutes the day prior to test days. On the test day the first drug was administered −40 minutes and the second drug −20 minutes before the familiarisation trial. Therefore, 20 minutes after the injection each rat received 3 minutes acclimatisation to the perspex box in absence of objects which was then followed by the 3 minute familiarisation trial and a second 3 minute choice trial following a 4 hour inter-trial interval. During both trials, exploration of each object was defined as the time spent (s) sniffing (within 1 cm of it with active vibrissae), licking, chewing or touching the object with the nose.

[2] = biological target: 5HT6 receptor (Homo sapiens, UniProt P50406); conditions: cited from earlier work
Chain of 5HT6 receptor (P50406 whole entry): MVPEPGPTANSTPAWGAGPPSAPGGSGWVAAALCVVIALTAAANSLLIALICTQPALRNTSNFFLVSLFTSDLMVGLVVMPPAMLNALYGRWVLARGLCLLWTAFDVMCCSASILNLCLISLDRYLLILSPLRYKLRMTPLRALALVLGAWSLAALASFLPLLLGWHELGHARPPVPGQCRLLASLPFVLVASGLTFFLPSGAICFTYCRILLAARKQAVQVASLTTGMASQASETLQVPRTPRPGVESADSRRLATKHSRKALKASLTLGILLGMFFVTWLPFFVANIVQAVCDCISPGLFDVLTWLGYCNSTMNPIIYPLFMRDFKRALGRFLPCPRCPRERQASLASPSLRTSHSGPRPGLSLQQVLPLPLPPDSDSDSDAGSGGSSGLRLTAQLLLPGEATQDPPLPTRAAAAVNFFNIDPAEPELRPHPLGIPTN

Structure (SMILES) | Effectiveness alone in novel object discrimination ([1]; COMPOUND 1 alone at 1 mg/kg i.p., 1 mg/kg) | Dose at which the maximum effect was achieved in dose response trials [1] [mg/kg] | Functionality on the 5HT6 receptor [2] | Effectiveness alone in novel object discrimination ([1]; SB-271046 alone at 5 mg/kg i.p., 5 mg/kg)
CN(C)CCc1c[nH]c2ccc(NS(=O)(=O)c3c(Cl)nc4sccn34)cc12 [COMPOUND 1, 6-Chloro-imidazo[2,1-b]thiazole-5-sulfonic acid [3-(2-dimethylamino-ethyl)-1H-indol-5-yl]-amide] | either not or very low effective; also recorded: neither COMPOUND 1 at 1 mg/kg nor SB-271046 at 5 mg/kg being significantly effective | 5 | agonist | –
COc1ccc(NS(=O)(=O)c2sc3ccc(Cl)cc3c2C)cc1N1CCNCC1 [SB-271046, 5-Chloro-N-(4-methoxy-3-(piperazin-1-yl)phenyl)-3-methyl-2-benzothiophene sulfonamide] | – | 10 | antagonist | either not or very low effective; also recorded: neither COMPOUND 1 at 1 mg/kg nor SB-271046 at 5 mg/kg being significantly effective
